Tests used:
[1] = molecular target: T1, partially purified PLD from rat brain membrane (Rattus norvegicus, UniProt P70496); experiment: Measurement of PLD activity (partially purified rat brain PLD, 14C-PC substrate, TLC); type: biochemical; conditions: for PLD activity, % of the control: 10 μM compound, standard mixture with 4.8 μM PIP2, 100 nM Arf, 5 μM GTPγS; for Km for PLD in the presence of inhibitor: Km without inhibitor 33.3 μM PC; for Vmax in the presence of inhibitor: Vmax without inhibitor 166.7 pmol/h, Lineweaver-Burk; for IC50: FIG. 2, read-out: Half-maximal inhibition of PLD activity
T1 construct: The activity of partially purified PLD from rat brain membrane was assayed; tissue Dr. Sue Goo Rhee (National Institutes of Health, Bethesda, Md.); host or cells: rat brain membranes
T1 sequence (P70496 1-1074): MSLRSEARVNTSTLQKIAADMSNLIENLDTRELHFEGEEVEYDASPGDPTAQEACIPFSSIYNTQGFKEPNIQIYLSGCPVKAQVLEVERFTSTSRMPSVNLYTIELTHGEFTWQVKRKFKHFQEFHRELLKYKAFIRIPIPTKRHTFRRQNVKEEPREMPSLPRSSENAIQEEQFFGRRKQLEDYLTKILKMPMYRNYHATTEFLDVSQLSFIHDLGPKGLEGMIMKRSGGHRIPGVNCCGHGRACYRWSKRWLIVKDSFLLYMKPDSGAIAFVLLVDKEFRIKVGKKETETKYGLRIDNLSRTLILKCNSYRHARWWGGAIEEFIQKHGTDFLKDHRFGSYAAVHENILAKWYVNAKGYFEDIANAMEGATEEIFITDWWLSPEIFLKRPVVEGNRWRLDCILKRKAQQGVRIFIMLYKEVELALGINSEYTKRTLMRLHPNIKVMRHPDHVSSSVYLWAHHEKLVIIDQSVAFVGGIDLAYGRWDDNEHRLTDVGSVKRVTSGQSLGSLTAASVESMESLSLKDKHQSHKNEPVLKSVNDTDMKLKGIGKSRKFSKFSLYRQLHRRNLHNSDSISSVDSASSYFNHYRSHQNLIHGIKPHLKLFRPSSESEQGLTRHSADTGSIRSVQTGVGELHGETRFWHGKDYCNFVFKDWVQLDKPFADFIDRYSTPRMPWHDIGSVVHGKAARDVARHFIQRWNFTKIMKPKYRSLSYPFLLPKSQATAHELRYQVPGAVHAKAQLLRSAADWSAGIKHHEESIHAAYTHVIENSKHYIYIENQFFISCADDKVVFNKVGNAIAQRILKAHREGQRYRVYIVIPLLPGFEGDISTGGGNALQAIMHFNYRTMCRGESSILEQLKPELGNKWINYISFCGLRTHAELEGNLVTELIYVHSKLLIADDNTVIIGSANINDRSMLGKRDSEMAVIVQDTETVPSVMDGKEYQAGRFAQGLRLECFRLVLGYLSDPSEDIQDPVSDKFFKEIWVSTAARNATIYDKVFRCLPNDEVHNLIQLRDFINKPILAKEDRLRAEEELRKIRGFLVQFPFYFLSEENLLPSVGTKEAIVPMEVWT

[2] = test system: human prostate cancer cell line PC-3; experiment: PC-3 cell growth (cell viability after trypan blue staining); type: cell-based
Experimental: The influence of lysophospholipids on the inhibition of cancer cell growth was investigated. For this purpose, human prostate cancer cell line PC-3 was used. PC-3 cells were cultured using standard RPMI 1640 medium supplemented with 5% fetal bovine serum (FBS). The composition of RPMI 1640 included inorganic salts, glucose, amino acids and vitamins (see Rajesh, D., et al., Molecular Pharmacology 56:515-525 (1999) for details). PC-3 cells were cultured in the presence of various presence of various phospholipids. At appropriate times after treatment the cells were treated by trypsin EDTA treatment, washed twice in an ice cold buffer and analyzed for cell viability after staining with trypan blue (Sawicki, W., et al., Stain Technology 42:143 (1967)).

[3] = test system: PLD activity in PC-3 cells; conditions: cited from earlier work
PLD from plant tissues = conditions: cited from earlier work
rat brain PLD = molecular target: T2, rat brain PLD (Rattus norvegicus, UniProt P70496); experiment: Binding of lysophospholipids to PLD (vesicle precipitation assay followed by immunoblot); conditions: 1 mM vesicles, 1,500 fold excess BSA
T2 construct: 200 ng of rat brain PLD; tissue Dr. Sue Goo Rhee (National Institutes of Health, Bethesda, Md.); host or cells: rat brain membranes
T2 sequence (P70496 1-1074): T1 sequence (P70496 1-1074)
Experimental: The binding ability of lysophospholipids to PLD was estimated by precipitation assay followed by immunoblot. The final assay volume was 0.3 ml containing 50 mM Hepes (pH 7.5), 3 mM EGTA, 80 mM KCl, 2.5 MM MgCl2, 2 mM CaCl2, 1% ethanol, 5 μM GTPγS, 33 nM myristoylated Arf, 300 μg of BSA, 200 ng of rat brain PLD and 1 mM lysophospholipid or phospholipid vesicles. After incubation at 37° C. for 10 minutes, the mixture was cooled in ice-water for 30 minutes and centrifuged at 17,000×g for 30 minutes at 4° C. The precipitant of lysophospholipid vesicles containing bound PLD in the excess of BSA (1,500 fold than rat PLD) was resuspended in 20 μL PBS (pH 7.5). The bound PLD was separated by 8% SDS-PAGE without reducing agent (2-mercaptoethanol) in sample loading buffer and transferred onto immunoblot membrane. The membrane was blotted with rabbit-PLD antibodies that detect both PLD 1 and PLD 2 isozymes. The PLD-antibody complex was visualized by staining alkaline phosphatase conjugated to a second antibody (Bio-Rad, Hercules, Calif.).

O[C@H]1[C@H](O)[C@@H](O)[C@H](O)[C@@H](O)[C@H]1O [inositol, reference compound]
inhibition of PLD activity by headgroups ([1]; 10 μM): None of the headgroups such as choline, glycerol, inositol, or serine significantly inhibited PLD activity

CCCCCCCC/C=C\CCCCCCCC(=O)O [oleate, reference compound]
inhibition at 20 µM ([1]; 20 μM): 10% | inhibition at 40 µM ([1]; 40 μM): 20%

C=C(C)[C@@H]1CC=C(CO)CC1 [perillyl alcohol, reference compound]
inhibition of PC-3 cell growth compared to LPI (FIG. 10) ([2]; 1 mM): not as strong inhibitor of PC-3 cell growth as compared to LPI

N[C@@H](CO)C(=O)O [serine, reference compound]
inhibition of PLD activity by headgroups ([1]; 10 μM): None of the headgroups such as choline, glycerol, inositol, or serine significantly inhibited PLD activity

Triton X-100 [reference compound]
stimulatory effect on PLD activity ([1]; 10 μM): 6-9%

eLPE [reference compound]
effect on rat brain PLD activity ([1]; 10 μM (FIG. 1)): not inhibited but rather slightly stimulated

lysophosphatidic acid [reference compound]
stimulation of rat brain PLD ([1]; 10 and 20 μM, assay contains Arf and PIP2): not stimulated | effect on PLD activity in PC-3 cells [3]: stimulate PLD activity

lysophosphatidylcholine [LPC, reference compound]
PLD activity, % of the control [1]: 61.0% | retardation of PC-3 cell growth (FIG. 8) [2]: able to retard the growth of PC-3 cells | inhibition of activity of PLD from plant tissues (PLD from plant tissues): not significantly inhibited

lysophosphatidylglycerol [LPG]
PLD activity, % of the control [1]: 24.9% | retardation of PC-3 cell growth (FIG. 8) [2]: able to retard the growth of PC-3 cells | inhibition of activity of PLD from plant tissues (PLD from plant tissues): not significantly inhibited

lysophosphatidylinositol [LPI]
inhibition of PLD activity ([1]; 160 nM): 19% | inhibition of PLD activity ([1]; 640 nM): 27% | PLD activity, % of the control, in the absence of Arf ([1]; 4 μM inhibitor, no Arf (no Arf alone: 72%)): 33% | Km for PLD in the presence of inhibitor ([1]; 4 μM inhibitor): did not change | Vmax in the presence of inhibitor ([1]; 4 μM inhibitor): 76.9 pmol/h | PLD activity, % of the control [1]: 23.3% | change of PLD activity by addition of myristoylated Arf in presence of inhibitor ([1]; 15 μM inhibitor): not significantly changed | IC50 [1]: 3 µM | PLD inhibition when PIP2 concentration tripled ([1]; LPI 4 μM, LPS 12 μM, PIP2 4.8 vs 14.4 μM): not significantly changed | co-precipitation of PLD proteins with lipid vesicles (rat brain PLD): co-precipitated | inhibition of PC-3 cell growth, lyso form vs phospholipid and inositol (FIG. 7) [2]: able to inhibit the PC-3 cell growth | retardation of PC-3 cell growth (FIG. 8) [2]: able to retard the growth of PC-3 cells | inhibition of PC-3 cell growth, concentration dependence (FIG. 9) ([2]; 100 μM): very inhibitory

lysophosphatidylserine [LPS]
Km for PLD in the presence of inhibitor ([1]; 4 μM inhibitor): did not change | Vmax in the presence of inhibitor ([1]; 4 μM inhibitor): 121.5 pmol/h | PLD activity, % of the control [1]: 30.3% | IC50 [1]: 6 µM | inhibition of activity of PLD from plant tissues (PLD from plant tissues): not significantly inhibited
